According to patent publication US10030020B2, “Spirocycle compounds and methods of making and using same” (Abide Therapeutics, Inc., priority 2016, dated 2018):
Where two headings read alike, the source gives them in different places.

Columns and labels:
Format in all cases: biochemical
[1] = biological target: ABHD6 (Mus musculus (Mouse), UniProt Q8R2Y0); experiment: In vitro competitive activity-based protein profiling (mouse brain membrane fraction or cell lysates), ABHD6 band; settings: for inhibition at 1 µM: read-out: ABHD6 % Inh 1 μM (mouse); for IC50: competitive ABPP
Procedure, shortened: (§1)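 Residual hydrolase activity was measured as gel band fluorescence after FP-Rh labelling (30 min, 37° C) of proteomes pretreated 30 min at 37° C with inhibitor.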

[2] = biological target: FAAH (Mus musculus (Mouse), UniProt O08914); experiment: In vitro competitive activity-based protein profiling (mouse brain membrane fraction or cell lysates), FAAH band; settings: for inhibition at 1 µM: read-out: FAAH % Inh 1 μM (mouse); for IC50: competitive ABPP
Procedure, shortened: as §1

[3] = biological target: MAGL (Mus musculus (Mouse), UniProt O35678); experiment: In vitro competitive activity-based protein profiling (mouse brain membrane fraction or cell lysates), MAGL band; settings: for inhibition at 1 µM: read-out: MAGL % Inh 1 μM (mouse); for IC50: competitive ABPP
Procedure: In Vitro Competitive Activity-Based Protein Profiling.
Proteomes (mouse brain membrane fraction or cell lysates) (50 μL, 1.0 mg/mL total protein concentration) were preincubated with varying concentrations of inhibitors at 37° C. After 30 min, FP—Rh (1.0 μL, 50 μM in DMSO) was added and the mixture was incubated for another 30 min at 37° C. Reactions were quenched with SDS loading buffer (50 μL-4×) and run on SDS-PAGE.

[4] = biological target: MAGL (Homo sapiens (Human), UniProt Q99685); experiment: In vitro competitive activity-based protein profiling (human prefrontal cortex or cell membrane fractions; hMAGL expressed in HEK293T cells)
Procedure: In Vitro Competitive Activity-Based Protein Profiling (Human).
Proteomes (human prefrontal cortex or cell membrane fractions) (50 μL, 1.0-2.0 mg/mL total protein concentration) were preincubated with varying concentrations of inhibitors at 37° C. After 30 min, FP—Rh or JW912 (1.0 μL, 50 μM in DMSO) was added and the mixture was incubated for another 30 min at room temperature. Reactions were quenched with SDS loading buffer (15 μL-4×) and run on SDS-PAGE.
Recombinant Expression of Human MAGL in HEK293T Cells.
Cell lysates were diluted with mock proteomes for use in competitive ABPP experiments.

[5] = human proteome, competitive ABPP

MAGL (Mus musculus (Mouse), UniProt O35678), sequence (O35678 whole entry): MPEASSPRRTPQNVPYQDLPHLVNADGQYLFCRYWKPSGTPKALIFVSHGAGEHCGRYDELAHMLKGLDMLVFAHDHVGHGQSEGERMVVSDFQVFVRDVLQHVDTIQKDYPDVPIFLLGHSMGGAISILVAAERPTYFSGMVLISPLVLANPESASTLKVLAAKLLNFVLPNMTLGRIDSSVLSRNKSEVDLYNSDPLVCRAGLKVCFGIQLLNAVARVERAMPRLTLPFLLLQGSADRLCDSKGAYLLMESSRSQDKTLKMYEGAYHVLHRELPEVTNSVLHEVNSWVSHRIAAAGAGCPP
MAGL (Homo sapiens (Human), UniProt Q99685), sequence (Q99685 whole entry): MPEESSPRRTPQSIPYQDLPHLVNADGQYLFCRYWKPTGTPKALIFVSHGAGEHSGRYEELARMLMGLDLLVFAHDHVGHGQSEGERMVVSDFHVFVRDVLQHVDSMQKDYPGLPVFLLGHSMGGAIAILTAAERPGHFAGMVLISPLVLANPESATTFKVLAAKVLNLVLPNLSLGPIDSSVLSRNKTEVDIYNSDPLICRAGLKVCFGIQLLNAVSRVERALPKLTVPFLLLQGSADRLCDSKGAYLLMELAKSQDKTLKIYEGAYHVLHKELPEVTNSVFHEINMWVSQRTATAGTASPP
FAAH, sequence (O08914 whole entry): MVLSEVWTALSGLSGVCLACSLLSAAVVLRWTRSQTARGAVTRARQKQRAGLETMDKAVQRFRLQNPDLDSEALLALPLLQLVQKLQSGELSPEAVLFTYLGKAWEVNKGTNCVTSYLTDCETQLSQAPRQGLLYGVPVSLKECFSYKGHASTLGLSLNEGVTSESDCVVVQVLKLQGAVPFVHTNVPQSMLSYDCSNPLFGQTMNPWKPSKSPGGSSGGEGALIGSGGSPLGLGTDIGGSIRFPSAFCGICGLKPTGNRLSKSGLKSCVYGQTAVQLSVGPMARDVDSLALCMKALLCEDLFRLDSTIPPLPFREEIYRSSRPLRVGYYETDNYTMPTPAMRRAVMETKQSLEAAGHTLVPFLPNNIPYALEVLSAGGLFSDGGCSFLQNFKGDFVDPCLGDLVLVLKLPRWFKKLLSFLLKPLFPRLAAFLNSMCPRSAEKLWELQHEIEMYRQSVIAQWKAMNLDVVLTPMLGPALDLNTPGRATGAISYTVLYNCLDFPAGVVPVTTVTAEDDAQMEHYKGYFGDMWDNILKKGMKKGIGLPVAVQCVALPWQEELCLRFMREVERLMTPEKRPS
ABHD6, sequence (Q8R2Y0 whole entry): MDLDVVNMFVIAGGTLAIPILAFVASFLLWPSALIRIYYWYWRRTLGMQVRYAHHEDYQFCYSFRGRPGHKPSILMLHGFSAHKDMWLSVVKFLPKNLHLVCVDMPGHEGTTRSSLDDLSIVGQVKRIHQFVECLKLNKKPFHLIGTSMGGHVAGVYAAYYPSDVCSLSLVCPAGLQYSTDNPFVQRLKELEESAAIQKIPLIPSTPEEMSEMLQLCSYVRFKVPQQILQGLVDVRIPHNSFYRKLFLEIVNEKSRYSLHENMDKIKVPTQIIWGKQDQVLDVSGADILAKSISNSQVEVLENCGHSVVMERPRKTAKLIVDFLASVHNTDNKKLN

inhibition at 1 µM ([1]; mouse)	inhibition at 1 µM ([2]; 1 μM, mouse)	inhibition at 1 µM ([3]; 1 μM, mouse)	IC50 ([4]; human)	inhibition at 1 µM ([1]; mouse proteome)	inhibition at 1 µM ([2]; 1 μM, mouse proteome)	inhibition at 1 µM ([3]; 1 μM, mouse proteome)	IC50 [4, 5]	Structure (SMILES)	further results
< 25%			< 100 nM					O=C(O)[C@@H]1CCCN(c2cc(CN3CCC4(CCN(C(=O)OC(C(F)(F)F)C(F)(F)F)CC4)C3)cc(C(F)(F)F)c2)C1 [Example 222]	FAAH % Inh 1 μM (mouse) ([2]; 1 μM, mouse): # (# is <25%); MAGL % Inh 1 μM (mouse) ([3]; 1 μM, mouse): ### (### is ≥75%)
< 25%	< 25%	> 75%	< 100 nM					CC1(C(=O)O)CCCN(c2cc(CN3CCC4(CCN(C(=O)OC(C(F)(F)F)C(F)(F)F)CC4)C3)cc(C(F)(F)F)c2)C1 (stereo not shown) [Example 223]	
< 25%	< 25%	25 to 75%	< 100 nM					O=C(O)c1cc(C(F)(F)F)ccc1CN1CCCC12CCN(C(=O)OC(C(F)(F)F)C(F)(F)F)CC2 [Example 261]	
≥ 75%	< 25%	> 75%	< 100 nM					O=C(O)C1CN(c2cc(CN3CCC4(CCN(C(=O)OC(C(F)(F)F)C(F)(F)F)CC4)C3)cc(C(F)(F)F)c2)CCO1 (stereo not shown) [Example 277]	
				25 to 75%	< 25%	> 75%	< 100 nM	O=C(O)c1cc(CN2CCCC23CCN(C(=O)OC(C(F)(F)F)C(F)(F)F)CC3)cc(C(F)(F)F)c1 [Example 206]	
				< 25%	< 25%	> 75%	< 100 nM	O=C(O)C1CN(c2cc(CN3CCCC34CCN(C(=O)OC(C(F)(F)F)C(F)(F)F)CC4)cc(C(F)(F)F)c2)CCO1 (stereo not shown) [Example 204]	
				< 25%	< 25%	> 75%	< 100 nM	O=C(O)C1CCN(c2cc(CN3CCCC34CCN(C(=O)OC(C(F)(F)F)C(F)(F)F)CC4)cc(C(F)(F)F)c2)C1 (stereo not shown) [Example 203]	
< 25%	< 25%	> 75%	< 100 nM					C#Cc1ccc(CN2CCCC23CCN(C(=O)OC(C(F)(F)F)C(F)(F)F)CC3)cc1 [Example 280]	
				≥ 75%	< 25%	> 75%	< 100 nM	O=C(O)C1CCN(c2cc(CN3CCC4(CCN(C(=O)OC(C(F)(F)F)C(F)(F)F)CC4)C3)cc(C(F)(F)F)c2)C1 (stereo not shown) [Example 202]	
				25 to 75%	< 25%	> 75%	< 100 nM	O=C(OC(C(F)(F)F)C(F)(F)F)N1CCC2(CCCN2Cc2cc(-c3nnn[nH]3)cc(C(F)(F)F)c2)CC1 [Example 205]	
≥ 75%	< 25%	> 75%	< 100 nM					O=C(O)c1ccc(CN2CCCC23CCN(C(=O)OC(C(F)(F)F)C(F)(F)F)CC3)c(C(F)(F)F)c1 [Example 265]	
				25 to 75%	< 25%	> 75%	< 100 nM	NC(=O)c1cc(CN2CCCC23CCN(C(=O)OC(C(F)(F)F)C(F)(F)F)CC3)ccc1C(F)(F)F [Example 178, 1,1,1,3,3,3-hexafluoropropan-2-yl 1-(3-carbamoyl-4-(trifluoromethyl)benzyl)-1,8-diazaspiro[4.5]decane-8-carboxylate]	IC50 ([1]; mouse proteome): > 1000 nM; IC50 ([2]; mouse proteome): > 1000 nM; IC50 ([3]; mouse proteome): < 100 nM
< 25%	< 25%	> 75%	< 100 nM					O=C(O)C1CCCCN1c1cc(CN2CCC3(CCN(C(=O)OC(C(F)(F)F)C(F)(F)F)CC3)C2)cc(C(F)(F)F)c1 (stereo not shown) [Example 225]	

The next lines start with the molecule.

Structure (SMILES)	inhibition at 1 µM ([1]; mouse)	inhibition at 1 µM ([2]; 1 μM, mouse)	inhibition at 1 µM ([3]; 1 μM, mouse)	IC50 ([4]; human)	inhibition at 1 µM ([1]; mouse proteome)	inhibition at 1 µM ([2]; 1 μM, mouse proteome)	inhibition at 1 µM ([3]; 1 μM, mouse proteome)	IC50 [4, 5]	further results
O=C(O)C1CCN(c2cc(Cl)cc(CN3CCC4(CCN(C(=O)OC(C(F)(F)F)C(F)(F)F)CC4)C3)c2)CC1 [Example 232]	25 to 75%	< 25%	> 75%	< 100 nM					
O=C(O)C1CCN(c2cc(C(F)(F)F)ccc2CN2CCC3(CCN(C(=O)OC(C(F)(F)F)C(F)(F)F)CC3)C2)C1 (stereo not shown) [Example 201]					≥ 75%	< 25%	> 75%	< 100 nM	
O=C(O)C1CCN(Cc2cc(CN3CCC4(CCN(C(=O)OC(C(F)(F)F)C(F)(F)F)CC4)C3)cc(C(F)(F)F)c2)CC1 [Example 245]	≥ 75%	< 25%	> 75%	< 100 nM					
O=C(O)C1CN(c2cc(C(F)(F)F)ccc2CN2CCC3(CCN(C(=O)OC(C(F)(F)F)C(F)(F)F)CC3)C2)CCO1 (stereo not shown) [Example 209]					25 to 75%	< 25%	> 75%	< 100 nM	
O=C(O)C1CCN(c2ccc(CN3CCC4(CCN(C(=O)OC(C(F)(F)F)C(F)(F)F)CC4)C3)cc2C(F)(F)F)CC1 [Example 228]	≥ 75%	< 25%	> 75%	< 100 nM					
O=C(O)C1CCN(Cc2cc(C(F)(F)F)ccc2CN2CCC3(CCN(C(=O)OC(C(F)(F)F)C(F)(F)F)CC3)C2)CC1 [Example 239]	< 25%	< 25%	> 75%	< 100 nM					
C#Cc1ccc(CN2CCCC23CCN(C(=O)OC(C(F)(F)F)C(F)(F)F)CC3)c(N2CCC(C(=O)O)CC2)c1 [Example 198, 1-{5-Ethynyl-2-[(8-{[(1,1,1,3,3,3-hexafluoropropan-2-yl)oxy]carbonyl}-1,8-diazaspiro[4.5]decan-1-yl)methyl]phenyl}piperidine-4-carboxylic acid]					< 25%	< 25%	> 75%	< 100 nM	
COC(=O)C1CCN(c2cc(C(F)(F)F)ccc2CN2CC3(CCN(C(=O)OC(C(F)(F)F)C(F)(F)F)CC3)CC2(C)C)CC1 [Example 53, 1,1,1,3,3,3-Hexafluoropropan-2-yl 2-(2-(4-(methoxycarbonyl)piperidin-1-yl)-4-(trifluoromethyl)benzyl)-3,3-dimethyl-2,8-diazaspiro[4.5]decane-8-carboxylate]					< 25%	< 25%	> 75%	< 100 nM	IC50 ([1]; mouse proteome): > 1000 nM; IC50 ([2]; mouse proteome): > 1000 nM; IC50 ([3]; mouse proteome): 100 to 1000 nM
CC1(C(=O)O)CCN(c2cc(CN3CCC4(CCN(C(=O)OC(C(F)(F)F)C(F)(F)F)CC4)C3)cc(C(F)(F)F)c2)C1 (stereo not shown) [Example 229]	≥ 75%	< 25%	> 75%	< 100 nM					
O=C(O)C1CCN(c2cc(CN3CCC4(CCN(C(=O)OC(C(F)(F)F)C(F)(F)F)CC4)C3)cc(S(F)(F)(F)(F)F)c2)CC1 [Example 264]	≥ 75%	< 25%	> 75%	< 100 nM					
O=C(O)C1COCCN1c1cc(CN2CCC3(CCN(C(=O)OC(C(F)(F)F)C(F)(F)F)CC3)C2)cc(C(F)(F)F)c1 (stereo not shown) [Example 278]	≥ 75%	< 25%	> 75%	< 100 nM					
O=C(O)[C@H]1CCCN(c2cc(C(F)(F)F)ccc2CN2CCC3(CCN(C(=O)OC(C(F)(F)F)C(F)(F)F)CC3)C2)C1 [Example 215]					≥ 75%	< 25%	> 75%	< 100 nM	
O=C(O)C1CCN(c2cc(CN3CCC4(CCN(C(=O)OC(C(F)(F)F)C(F)(F)F)CC4)C3)cc(C(F)(F)F)c2)CC1 [Example 279]	≥ 75%	< 25%	> 75%	< 100 nM					
O=C(O)C1CCN(c2cc(CN3CCC4(CCN(C(=O)OC(C(F)(F)F)C(F)(F)F)CC4)C3)ccc2C(F)(F)F)CC1 [Example 234]	≥ 75%	< 25%	> 75%	< 100 nM					
CC1(C(=O)O)CN(c2cc(CN3CCC4(CCN(C(=O)OC(C(F)(F)F)C(F)(F)F)CC4)C3)cc(C(F)(F)F)c2)CCO1 (stereo not shown) [Example 252]	≥ 75%	< 25%	> 75%	< 100 nM					
O=C(O)C1CCN(c2cc(S(F)(F)(F)(F)F)ccc2CN2CCC3(CCN(C(=O)OC(C(F)(F)F)C(F)(F)F)CC3)C2)CC1 [Example 241]	≥ 75%	< 25%	> 75%	< 100 nM					
O=C(O)C1CCN(c2cc(F)cc(CN3CCC4(CCN(C(=O)OC(C(F)(F)F)C(F)(F)F)CC4)C3)c2)CC1 [Example 233]	25 to 75%	< 25%	> 75%	< 100 nM					
O=C(O)C1CCN(c2cc(CN3CCCC34CCN(C(=O)OC(C(F)(F)F)C(F)(F)F)CC4)cc(S(F)(F)(F)(F)F)c2)CC1 [Example 263]	25 to 75%	< 25%	> 75%	< 100 nM					
